# Several values for one entry are separate records, joined by “and”; a condition that tells them apart may be missing. Identical values can stand only once. Like-named read-outs stand apart in the source and are kept apart here.
# How the values were obtained:
# [1] = test system: G408A mutant of HPPD SEQ ID NO:14; test: time course of inhibition of enzyme activity; type: biochemical, Avena sativa; details: inhibitor at 0.15 or 0.6 μM
# [2] = target: HPPD SEQ ID NO:23 (Avena sativa, UniProt A0ACD5V6K6, A242W/DEL109-109); test: biochemical; type: binding; details: read-out: kon (k2)
# Description: (§1) On rates (governed by an association rate constant, kon) for the formation of the enzyme: inhibitor complexes, EI and off rates (governed by a dissociation rate constant, koff) were determined by methods known in the art and essentially as described in Hawkes et al. (2001) Proc. Bright. Crop. Prot. Conf. Weeds, 2:563-568 and in PCT Patent App. Pub. No. WO 02/46387).
# (§2) For example, on rates were measured by, at zero time, adding ˜60 pmoles HPPD to 50 mM BisTrisPropane buffer at pH7.0 and at 25° C. containing 25 mM Na ascorbate, 4 μg/ml bovine catalase (Sigma, St. Louis, Mo.) and an excess (˜300 pmoles) of ^14C inhibitor in a total assay volume of 425 μl and, at various time points (0-180 s), quenching the radiolabel binding reaction by addition and rapid mixing of 100 μl ‘cold’ 1 mM structure A. Protein samples quenched at different times were then exchanged into 50 mM BisTrisPropane buffer at pH 7.0 containing 0.1M KCl by rapid chromatography down a NAP5 G25 Sephadex column (GE Healthcare Ltd, Buckinghamshire UK) and the amount of ^14C bound to protein fractions quantified in Optiphase scintillant using a Tri-Carb 2900TR scintillation counter (Perkin Elmer, Wellesley, Mass.). The data were fit according to the scheme below in order to derive the value of the apparent second order rate constant, k2, governing the association rate of enzyme and radiolabelled inhibitor. A range of enzyme and inhibitor concentrations were used. […] Further example methods are described in PCT Patent App. Pub. No. WO 02/46387.
# (§3) Off rates (k1 in the scheme below) were derived from exchange rate studies where either the test inhibitor, I, or its exchange partner, J were radiolabelled and the data fit according to the scheme below. As noted in Hawkes et al. (2001) Proc. Bright. Crop. Prot. Conf.
# (§4) After 30 minutes the exchange reaction was initiated with addition of 100 μl 1 mM ‘cold’ structure A with thorough mixing, and, immediately, 150 μl were withdrawn and loaded onto a NAP5 column, the protein exchanged into 50 mM BisTrisPropane buffer at pH 7.0 containing 0.1M KCl by rapid (<2 min) chromatography down a NAP5 G25 Sephadex column (GE Healthcare Ltd, Buckinghamshire UK) and the amount of ^14C bound to protein measured by Optiphase scintillant using a Tri-Carb 2900TR scintillation counter (Perkin Elmer, Wellesley, Mass.). Further aliquots were removed and measured in the same way at various times over minutes or hours as required in order to determine the exchange kinetics.
# (§5) After 30 minutes the reaction vessel was transferred to ice. After a further 10 minutes at ice temperature the exchange reaction was initiated by addition of 100 μl 1 mM Structure A, with thorough mixing, and 150 μl was withdrawn and loaded onto a NAP5 column in a cold room at ˜5-8° C. in order to quantify the amount of radiolabel remaining bound to the protein at various time from the start of exchange at ice temperature.
# (§6) Off rates (k1) of HPPD inhibitors that are not available radiolabelled or that present other measurement problems (for example high levels of background non-specific protein-binding which can be measured as radiolabel binding that persists in the presence of high concentrations of ‘cold’ inhibitor) may be measured indirectly. […] Exemplary methods are also described in PCT Patent App. Pub. No. WO 02/46387.
# [3] = target: HPPD SEQ ID NO:25 (Avena sativa, UniProt A0ACD5V6K6, DEL109-109/L359A); test: biochemical; type: binding
# Description: as §1, §2, §3, §4, §5, §6
# [4] = target: HPPD SEQ ID NO:17 (Avena sativa, UniProt A0ACD5V6K6, DEL109-109/Q298S); test: biochemical; type: binding
# Description: as §1, §2, §3, §4, §5, §6
# [5] = target: HPPD SEQ ID NO:18 (Avena sativa, UniProt A0ACD5V6K6, DEL109-109/I285T); test: biochemical; type: binding
# Description: as §1, §2, §3, §4, §5, §6
# [6] = target: HPPD SEQ ID NO:20 (Avena sativa, UniProt A0ACD5V6K6, DEL109-109/I285S); test: biochemical; type: binding
# Description: as §1, §2, §3, §4, §5, §6
# [7] = target: HPPD SEQ ID NO:24 (Avena sativa, UniProt A0ACD5V6K6, DEL109-109/L359M); test: biochemical; type: binding
# Description: as §1, §2, §3, §4, §5, §6
# [8] = target: HPPD SEQ ID NO:21 (Avena sativa, UniProt A0ACD5V6K6, DEL109-109/I285V); test: biochemical; type: binding
# Description: as §1, §2, §3, §4, §5, §6
# [9] = target: HPPD SEQ ID NO:15 (Avena sativa, UniProt A0ACD5V6K6, DEL109-109/Q298A); test: biochemical; type: binding
# Description: as §1, §2, §3, §4, §5, §6
# [10] = target: HPPD SEQ ID NO:22 (Avena sativa, UniProt A0ACD5V6K6, DEL109-109/L256M); test: biochemical; type: binding
# Description: as §1, §2, §3, §4, §5, §6
# [11] = target: HPPD SEQ ID NO:16 (Avena sativa, UniProt A0ACD5V6K6, DEL109-109/Q298G); test: biochemical; type: binding
# Description: as §1, §2, §3, §4, §5, §6
# [12] = target: HPPD SEQ ID NO:14 (Avena sativa, UniProt A0ACD5V6K6, DEL109-109); test: biochemical; type: binding
# Description: as §1, §2, §3, §4, §5, §6
# [13] = target: HPPD SEQ ID NO:26 (Avena sativa, UniProt A0ACD5V6K6, DEL109-109/L256M/L359M); test: biochemical; type: binding; details: read-out: koff (k1)
# Description: as §1
# For example, on rates were measured by, at zero time, adding ˜60 pmoles HPPD to 50 mM BisTrisPropane buffer at pH7.0 and at 25° C. containing 25 mM Na ascorbate, 4 μg/ml bovine catalase (Sigma, St. Louis, Mo.) and an excess (˜300 pmoles) of ^14C inhibitor in a total assay volume of 425 μl and, at various time points (0-180 s), quenching the radiolabel binding reaction by addition and rapid mixing of 100 μl ‘cold’ 1 mM structure A. Protein samples quenched at different times were then exchanged into 50 mM BisTrisPropane buffer at pH 7.0 containing 0.1M KCl by rapid chromatography down a NAP5 G25 Sephadex column (GE Healthcare Ltd, Buckinghamshire UK) and the amount of ^14C bound to protein fractions quantified in Optiphase scintillant using a Tri-Carb 2900TR scintillation counter (Perkin Elmer, Wellesley, Mass.). The data were fit according to the scheme below in order to derive the value of the apparent second order rate constant, k2, governing the association rate of enzyme and radiolabelled inhibitor. […]
# HPPD SEQ ID NO:14, sequence (A0ACD5V6K6 entry or part of it DEL109-109): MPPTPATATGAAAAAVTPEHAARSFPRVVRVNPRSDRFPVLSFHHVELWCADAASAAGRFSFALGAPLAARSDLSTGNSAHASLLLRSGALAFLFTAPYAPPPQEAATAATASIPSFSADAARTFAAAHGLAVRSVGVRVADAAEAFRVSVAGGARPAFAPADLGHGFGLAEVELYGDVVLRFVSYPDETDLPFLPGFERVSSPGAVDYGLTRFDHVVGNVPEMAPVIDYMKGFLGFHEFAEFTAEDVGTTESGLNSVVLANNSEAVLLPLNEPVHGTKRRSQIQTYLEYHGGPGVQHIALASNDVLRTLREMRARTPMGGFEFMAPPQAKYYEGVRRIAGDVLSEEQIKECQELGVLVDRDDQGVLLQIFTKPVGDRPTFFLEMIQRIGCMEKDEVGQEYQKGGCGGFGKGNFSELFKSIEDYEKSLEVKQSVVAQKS
# HPPD SEQ ID NO:18, sequence (A0ACD5V6K6 entry or part of it DEL109-109/I285T): as the sequence (A0ACD5V6K6 entry or part of it DEL109-109) above, with I284T counted along it
# HPPD SEQ ID NO:21, sequence (A0ACD5V6K6 entry or part of it DEL109-109/I285V): as the sequence (A0ACD5V6K6 entry or part of it DEL109-109) above, with I284V counted along it
# HPPD SEQ ID NO:17, sequence (A0ACD5V6K6 entry or part of it DEL109-109/Q298S): as the sequence (A0ACD5V6K6 entry or part of it DEL109-109) above, with Q297S counted along it
# HPPD SEQ ID NO:22, sequence (A0ACD5V6K6 entry or part of it DEL109-109/L256M): as the sequence (A0ACD5V6K6 entry or part of it DEL109-109) above, with L255M counted along it
# HPPD SEQ ID NO:24, sequence (A0ACD5V6K6 entry or part of it DEL109-109/L359M): as the sequence (A0ACD5V6K6 entry or part of it DEL109-109) above, with L358M counted along it
# HPPD SEQ ID NO:25, sequence (A0ACD5V6K6 entry or part of it DEL109-109/L359A): as the sequence (A0ACD5V6K6 entry or part of it DEL109-109) above, with L358A counted along it
# HPPD SEQ ID NO:15, sequence (A0ACD5V6K6 entry or part of it DEL109-109/Q298A): as the sequence (A0ACD5V6K6 entry or part of it DEL109-109) above, with Q297A counted along it
# HPPD SEQ ID NO:16, sequence (A0ACD5V6K6 entry or part of it DEL109-109/Q298G): as the sequence (A0ACD5V6K6 entry or part of it DEL109-109) above, with Q297G counted along it
# HPPD SEQ ID NO:20, sequence (A0ACD5V6K6 entry or part of it DEL109-109/I285S): as the sequence (A0ACD5V6K6 entry or part of it DEL109-109) above, with I284S counted along it
# HPPD SEQ ID NO:26, sequence (A0ACD5V6K6 entry or part of it DEL109-109/L256M/L359M): as the sequence (A0ACD5V6K6 entry or part of it DEL109-109) above, with L255M, L358M counted along it
# HPPD SEQ ID NO:23, sequence (A0ACD5V6K6 entry or part of it DEL109-109/A242W): as the sequence (A0ACD5V6K6 entry or part of it DEL109-109) above, with A241W counted along it
smiles,measurement,setting,value
COCCOCc1nc(C(F)(F)F)ccc1C(=O)C1C(=O)C2CCC(C2)C1=O (stereo not shown) [Structure C],extent of inhibition compared with the control enzyme,[1],to a lesser extent
same,kon,[2],7500 M⁻¹ s⁻¹
same,Kd,[3],23 nM
same,koff,[3]; read-out: koff (k1),0.000113 s⁻¹
same,kon,[3]; read-out: kon (k2),4800 M⁻¹ s⁻¹
same,Kd,[4],7.1 nM
same,koff,[4]; read-out: koff (k1),6.65e-05 s⁻¹
same,kon,[4]; read-out: kon (k2),9400 M⁻¹ s⁻¹
same,Kd,[5],11.9 nM
same,koff,[5]; read-out: koff (k1),9e-05 s⁻¹
same,kon,[5]; read-out: kon (k2),7500 M⁻¹ s⁻¹
same,Kd,[6],6.6 nM
same,koff,[6]; read-out: koff (k1),6.6e-05 s⁻¹
same,kon,[6]; read-out: kon (k2),10100 M⁻¹ s⁻¹
same,Kd,[7],16 nM
same,"SEQ ID NO:24 superior to SEQ ID NO:14 (in vitro, in particular off rate data)",[7],neutral
same,koff,[7]; read-out: koff (k1),7.82e-05 s⁻¹
same,kon,[7]; read-out: kon (k2),4900 M⁻¹ s⁻¹
same,Kd,[8],11.9 nM
same,koff,[8]; read-out: koff (k1),9e-05 s⁻¹
same,kon,[8]; read-out: kon (k2),7500 M⁻¹ s⁻¹
same,Kd,[9],17.7 nM
same,koff,[9]; read-out: koff (k1),0.000113 s⁻¹
same,kon,[9]; read-out: kon (k2),7500 M⁻¹ s⁻¹
same,Kd,[10],23.9 nM
same,koff,[10]; read-out: koff (k1),9e-05 s⁻¹
same,kon,[10]; read-out: kon (k2),4400 M⁻¹ s⁻¹
same,Kd,[11],26.7 nM
same,koff,[11]; read-out: koff (k1),0.00012 s⁻¹
same,kon,[11]; read-out: kon (k2),4500 M⁻¹ s⁻¹
same,"On rate, activity-based method","[12]; 25° C., enzyme activity-based method",7800 M⁻¹ s⁻¹ and 7600 M⁻¹ s⁻¹ and 7200 M⁻¹ s⁻¹ and 10000 M⁻¹ s⁻¹
same,kon,"[12]; 25° C., enzyme activity-based method, read-out: On rate, activity-based method",7500 M⁻¹ s⁻¹
same,Kd/Km ratio,[12]; HPPD SEQ ID NO:14,0.0017
same,Kd,"[12]; Kd, estimated from on and off rates, 25° C.",9.4 nM
same,koff,[12]; read-out: koff (k1),7.04e-05 s⁻¹
same,kon,[12]; read-out: kon (k2),7500 M⁻¹ s⁻¹
same,koff,[13],9e-05 s⁻¹

# Reference: US9175305B2, “Mutant hydroxyphenylpyruvate dioxygenase polypeptides and methods of use” (Syngenta Participations AG, priority 2009, dated 2015)
